Results: US9050267B2 (Novartis AG, priority 2011, dated 2015)
Counter-ions that a name gives are not always drawn. Like-named read-outs stand apart in the source and are kept apart here. Peptide text beside a SMILES is read from it.

Experiments:
[1] = Aerodynamic particle size distribution, NEXT GENERATION IMPACTOR, passive blister dry powder inhaler; type: physicochemical; conditions: Lot A2; for % deviation in FPFd2Q<500: going from 35 L/min to 47 L/min
Protocol: The aerodynamic particle size distribution (aPSD) of the resulting aerosol dose was assessed using a NEXT GENERATION IMPACTOR™ at flow rates of 35 LPM and 47 LPM, corresponding to inhaler pressure drops of 4 kPa and 6 kPa, respectively. Note for present purposes flow rate and pressure drop are related via the inhaler flow resistance, and are used interchangeably. The mass distribution of each active ingredient on the cascade impactor stages was determined using an HPLC assay.
Total lung deposition as a function of variations in flow rate (O) is dependent not only on the aerodynamic particle size distribution of the aerosol, but also on the variations in inertial impaction which occur with changes in flow rate. In other words, for a given aPSD, the lung dose is expected to decrease as the flow rate increases. In order to achieve flow rate independence in-vivo, it is important to achieve a balance of these two opposing factors. A simple way to account for the dependence of lung dose on both variables, i.e. aerodynamic particle size cutoff diameter, d, and flow rate, Q, is to express the aPSD in terms of a fine particle fraction cut-off which incorporates both variables. Assuming oropharyngeal losses are determined largely by inertial impaction, the cut-off for lung dose may be expressed in terms of the impaction parameter, d^2Q. The selected cut-off d^2Q of 500 μm^2-L/min was chosen to represent a range of inhalers, based on the fact that the best correlate of lung deposition is found for the fraction of particles with an aerodynamic size of less than 3 μm, and a medium resistance inhaler is typically tested at a flow rate of about 60 L/min.

[2] = TURBUHALER, cited from earlier work
β2-adrenoceptor = β2-adrenoceptor (Homo sapiens, UniProt P07550); conditions: cited from earlier work
[3] = cited from earlier work
[4] = pressure drop 4 kPa, flow rate 35 L/min
[5] = pressure drop 6 kPa, flow rate 47 L/min

β2-adrenoceptor, sequence (P07550 whole entry, species assumed): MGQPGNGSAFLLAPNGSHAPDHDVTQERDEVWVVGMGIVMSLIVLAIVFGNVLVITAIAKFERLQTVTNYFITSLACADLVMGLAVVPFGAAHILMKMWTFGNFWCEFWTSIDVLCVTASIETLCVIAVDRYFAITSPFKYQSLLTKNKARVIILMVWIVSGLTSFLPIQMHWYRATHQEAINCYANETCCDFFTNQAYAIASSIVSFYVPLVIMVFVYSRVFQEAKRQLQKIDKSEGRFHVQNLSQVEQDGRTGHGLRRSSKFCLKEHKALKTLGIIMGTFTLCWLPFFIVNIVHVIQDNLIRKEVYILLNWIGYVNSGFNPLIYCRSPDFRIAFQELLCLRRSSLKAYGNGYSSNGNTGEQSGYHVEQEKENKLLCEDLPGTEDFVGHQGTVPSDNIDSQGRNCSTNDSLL

With C[N+]1(C)CCC(OC(=O)C(O)(c2ccccc2)C2CCCC2)C1.[Br-] (centres unmarked) [Glycopyrrolate, 3-[(cyclopentyl-hydroxyphenyl-acetyl)oxy]-1,1-dimethylpyrrolidinium bromide] the “% deviation in FPFd2Q<500” value [1] was 8.1%.
With CCc1cc2c(cc1CC)CC(NC[C@H](O)c1ccc(O)c3[nH]c(=O)ccc13)C2 [Indacaterol maleate, (R)-5-[2-(5,6-diethyl-indan-2-ylamino)-1-hydroxyethyl]-8-hydroxy-1H-quinolin-2-one] the “FPF<3.3 μm” value [1, 4] was 57 % DD, the MMAD [1, 4] was 2.8 μm and the “d^2Q < 500” value [1, 4] was 65. The “FPF<3.3 μm” value [1, 5] was 69 % DD, the MMAD [1, 5] was 2.3 μm and the “d^2Q < 500” value [1, 5] was 68.
For CCCC1O[C@@H]2C[C@H]3[C@@H]4CCC5=CC(=O)C=C[C@]5(C)[C@H]4[C@@H](O)C[C@]3(C)[C@]2(C(=O)CO)O1 (some centres unmarked) [budesonide], the total lung deposition ([2]; breathe more slowly (comfortable inhalation manoeuvre)) is given as 15% and the total lung deposition ([2]; breathe quickly (forceful inhalation manoeuvre)) is given as 28%.
In the case of CCc1cc2c(cc1CC)CC(NC[C@H](O)c1ccc(O)c3[nH]c(=O)ccc13)C2 [indacaterol, (R)-5-[2-(5,6-diethyl-indan-2-ylamino)-1-hydroxyethyl]-8-hydroxy-1H-quinolin-2-one], the “% deviation in FPFd2Q<500” value [1] is listed as 4.6%, the duration of action (β2-adrenoceptor) is listed as “over 24 hours” and the onset of action (β2-adrenoceptor) is listed as “about 10 minutes”.
For O=C([O-])CC(O)(CC(=O)[O-])C(=O)[O-].[Na+].[Na+].[Na+] [sodium citrate], the “Dry Tg” value ([3]; pH > 7) is listed as 170 (pH > 7) ° C.
For CC(C)C[C@H](NC(=O)[C@H](CC(C)C)NC(=O)[C@@H](N)CC(C)C)C(=O)O [trileucine] (H-Leu-Leu-Leu-OH), the Dry Tg ([3]; pH dependent) is given as 70 to 100 °C.
